# pIC50: −log10 of the molar value.
# Molecular target: T1, mutant B-RAF (Homo sapiens, UniProt P15056, V600E)
# T1 construct: purchased Upstate (Charlottesville, Va.)
# Test: RAF biochemical assay (MEK-1 phosphorylation, anti-phospho MEK1/2 detection)
# Settings: @ 2 uM
# Procedure: Materials: The RAF kinases and the anti-phospho MEK1/2 antibody were from Upstate (Charlottesville, Va.). The RAF substrate used was full length N-terminal GST-MEK-1, which was expressed in E. coli and purified in-house by HPLC. All proteins were aliquoted and stored at −80° C.
# Compounds were serially diluted in assay buffer containing 1% DMSO and 20 μL of test compound at a concentration 3-fold more than the final concentration, and were added to a polypropylene V-well reaction plate. Vehicle control wells received buffer only with DMSO at equivalent concentrations to the test wells. […] These reaction plates were incubated at room temperature for 30 minutes. Capture of MEK-1 was initiated by transferring 50 μl of the reaction mixture to a Nunc Maxisorp™ microplate that is designed for non-specific protein capture. After 30 minute capture of MEK-1 at room temperature, this plate was washed with TBST (6×200 μL/well) to fully terminate the reaction. The plate was then blocked for 1 hour by the addition of 100 μl/well of Superblock™ in phosphate buffered saline (PBS) blocking reagent. Plate was again washed with TBST (6 times with 200 μL/well), followed by the addition of 70 μL/well of Upstate anti-phospho MEK 1/2 diluted 1:1000 in Pierce Superblock (PBS). After a 60 minute incubation, this plate was washed with TBST (6 times with 200 μL/well), and 70 μL of the secondary antibody (Pierce Alkaline Phosphatase tagged goat anti-rabbit) prepared at 1:4000 in Superblock, were added. After a 45 minute incubation at room temperature, the wells of the microplate were washed with TBST (6 times with 200 μL/well), and thereafter 100 μl/well of Attophos™ fluorescent alkaline phosphatase substrate was added according to the manufacturer's instructions (JBL Scientific).
# T1 sequence (P15056 whole entry V600E): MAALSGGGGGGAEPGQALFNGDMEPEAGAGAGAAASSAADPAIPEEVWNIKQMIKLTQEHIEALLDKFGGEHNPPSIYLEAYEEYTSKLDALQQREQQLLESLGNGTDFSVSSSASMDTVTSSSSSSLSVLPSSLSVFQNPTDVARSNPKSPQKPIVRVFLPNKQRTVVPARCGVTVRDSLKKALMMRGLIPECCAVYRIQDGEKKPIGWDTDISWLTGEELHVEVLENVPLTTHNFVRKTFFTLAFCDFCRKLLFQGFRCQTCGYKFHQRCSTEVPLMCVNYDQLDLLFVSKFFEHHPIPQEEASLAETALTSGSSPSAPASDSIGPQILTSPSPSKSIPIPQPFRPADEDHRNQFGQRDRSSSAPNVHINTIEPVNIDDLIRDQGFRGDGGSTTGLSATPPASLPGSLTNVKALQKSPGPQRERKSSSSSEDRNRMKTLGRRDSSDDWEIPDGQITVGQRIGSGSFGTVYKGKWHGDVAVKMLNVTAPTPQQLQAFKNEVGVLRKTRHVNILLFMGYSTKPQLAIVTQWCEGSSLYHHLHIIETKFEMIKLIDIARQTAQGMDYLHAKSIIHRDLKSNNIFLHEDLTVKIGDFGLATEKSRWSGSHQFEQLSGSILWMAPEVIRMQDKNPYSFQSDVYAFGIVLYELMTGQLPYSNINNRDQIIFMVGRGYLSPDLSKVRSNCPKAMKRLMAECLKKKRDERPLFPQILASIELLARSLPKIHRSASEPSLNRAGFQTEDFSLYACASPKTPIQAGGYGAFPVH
row,Structure (SMILES),inhibition at 2 µM
1,"O=[N+]([O-])c1ccc(-c2nc3sccn3c2-c2ccnc(NC3CCNCC3)n2)cc1 [Example 247, 4-[6-(4-nitrophenyl)imidazo[2,1-b][1,3]thiazol-5-yl]-N-piperidin-4-ylpyrimidin-2-amine]",9%

# Same assay, conditions: @ 10 uM; read-out: Mutant B-RAF % inhibition
row,Structure (SMILES),inhibition at 10 µM
1,"Fc1ccc(-c2nc3occn3c2-c2ccnc(NC3CCNCC3)n2)c(Cl)c1 [Example 301, 4-[6-(2-chloro-4-fluorophenyl)imidazo[2,1-b][1,3]oxazol-5-yl]-N-piperidin-4-ylpyrimidin-2-amine]",39%
2,"CCOC(=O)c1ccc(-c2nc3sccn3c2-c2ccnc(N[C@@H]3CCCNC3)n2)cc1OCC [Example 128, ethyl 2-ethoxy-4-(5-{2-[(3R)-piperidin-3-ylamino]pyrimidin-4-yl}imidazo[2,1-b][1,3]thiazol-6-yl)benzoate]",24%
3,"CC(=O)NC(CO)C(=O)N1CCC(Nc2nccc(-c3c(-c4ccc(F)cc4)nc4occn34)n2)CC1 (stereo not shown) [Example 212, N-[2-[4-({4-[6-(4-fluorophenyl)imidazo[2,1-b][1,3]oxazol-5-yl]pyrimidin-2-yl}amino)piperidin-1-yl]-1-(hydroxymethyl)-2-oxoethyl]acetamide]",43%
4,"CS(=O)(=O)N1CCC(Nc2nccc(-c3c(-c4ccc(F)cc4)nc4occn34)n2)CC1 [Example 299, 4-[6-(4-fluorophenyl)imidazo[2,1-b][1,3]oxazol-5-yl]-N-[1-(methylsulfonyl)piperidin-4-yl]pyrimidin-2-amine]",55%
5,"CC(=O)N1CCC(Nc2nccc(-c3c(-c4ccccc4C)nc4occn34)n2)CC1 [Example 303, N-(1-acetylpiperidin-4-yl)-4-[6-(2-methylphenyl)imidazo[2,1-b][1,3]oxazol-5-yl]pyrimidin-2-amine]",42%
6,"Cc1cc(NC(=O)N2CCC[C@@H](Nc3nccc(-c4c(-c5ccc(F)cc5)nc5occn45)n3)C2)c(C(F)(F)F)o1 [Example 67, (3R)-3-({4-[6-(4-fluorophenyl)imidazo[2,1-b][1,3]oxazol-5-yl]pyrimidin-2-yl}amino)-N-[5-methyl-2-(trifluoromethyl)-3-furyl]piperidine-1-carboxamide]",29%
7,"COc1cccc(-c2nc3sccn3c2-c2ccnc(N[C@H]3CCCN(S(=O)(=O)c4ccc(Cl)cc4)C3)n2)c1 [Example 139, N-{(3S)-1-[(4-chlorophenyl)sulfonyl]piperidin-3-yl}-4-[6-(3-methoxyphenyl)imidazo[2,1-b][1,3]thiazol-5-yl]pyrimidin-2-amine]",41%
8,"COc1ccc(C(=O)N2CCC[C@@H](Nc3nccc(-c4c(-c5ccc(F)c(F)c5)nc5sccn45)n3)C2)cc1 [Example 89, 4-[6-(3,4-difluorophenyl)imidazo[2,1-b][1,3]thiazol-5-yl]-N-[(3R)-1-(4-methoxybenzoyl)piper-idin-3-yl]pyrimidin-2-amine]",40%

# Same assay, conditions: read-out: Mutant B-RAF % inhibition
row,Structure (SMILES),inhibition at 10 µM
1,"O=C(NCC1CCCCC1)N1CCC[C@@H](Nc2nccc(-c3c(-c4ccc(F)cc4)nc4occn34)n2)C1 [Example 68, (3R)-N-(cyclohexylmethyl)-3-({4-[6-(4-fluorophenyl)imi-dazo[2,1-b][1,3]oxazol-5-yl]pyrimidin-2-yl}amino)piperidine-1-carboxamide]",42%

# Same assay, conditions: read-out: Mutant B-RAF IC50
row,Structure (SMILES),pIC50
1,"NS(=O)(=O)Oc1cccc(-c2nc3sccn3c2-c2ccnc(N[C@@H]3CCCN(S(=O)(=O)c4ccc(Cl)cc4)C3)n2)c1 [Example 377, 3-{5-[2-({(3R)-1-{(4-chlorophenyl)sulfonyl]piperidin-3-yl}amino)pyrimidin-4-yl]imidazo[2,1-b][1,3]thiazol-6-yl}phenyl sulfamate]",7.07
2,"NCC(=O)Nc1ccccc1-c1nc2sccn2c1-c1ccnc(N[C@@H]2CCCN(S(=O)(=O)c3ccc(Cl)cc3)C2)n1 [Example 141, N~1~-(2-{5-[2-({(3R)-1-[(4-chlorophenyl)sulfonyl]piperidin-3-yl}amino)pyrimidin-4-yl]imidazo[2,1-b][1,3]thiazol-6-yl}phenyl)glycinamide]",6.09
3,"CC(C)c1ccc(S(=O)(=O)N2CCC(Nc3nccc(-c4c(-c5ccc(F)cc5)nc5occn45)n3)CC2)cc1 [Example 201, 4-[6-(4-fluorophenyl)imidazo[2,1-b][1,3]oxazol-5-yl]-N-{1-[(4-isopropylphenyl)sulfonyl]piperidin-4-yl}pyrimidin-2-amine]",6.38
4,"O=S(=O)(c1ccc(F)cc1)N1CCCC(Nc2nccc(-c3c(-c4ccc(F)cc4)nc4sccn34)n2)C1 (stereo not shown) [Example 2, 4-[6-(4-fluorophenyl)imidazo[2,1-b][1,3]thiazol-5-yl]-N-{1-[(4-fluorophenyl)sulfonyl]piperidin-3-yl}pyrimidin-2-amine]",6.34
5,"COc1ccc(C(=O)N2CCC(Nc3nccc(-c4c(-c5ccc(F)cc5)nc5occn45)n3)CC2)cc1 [Example 158, 4-[6-(4-fluorophenyl)imidazo[2,1-b][1,3]oxazol-5-yl]-N-[1-(4-methoxybenzoyl)piperidin-4-yl]pyrimidin-2-amine]",6.33
6,"Oc1cccc(-c2nc3sccn3c2-c2ccnc(NC3CCN(CC(O)COc4ccc(Cl)cc4)CC3)n2)c1 (stereo not shown) [Example 318, 3-{5-[2-({1-[3-(4-chlorophenoxy)-2-hydroxypropyl]piperidin-4-yl}amino)pyrimidin-4-yl]imidazo[2,1-b][1,3]thiazol-6-yl}phenol]",6.37
7,"CS(=O)(=O)N1CCC[C@@H](Nc2nccc(-c3c(-c4cccc(O)c4)nc4sccn34)n2)C1 [Example 152, 3-[5-(2-{[(3R)-1-(methylsulfonyl)piperidin-3-yl]amino}pyrimidin-4-yl)imidazo[2,1-b][1,3]thiazol-6-yl]phenol]",6.94
8,"O=S(=O)(c1ccc(Cl)cc1)N1CCC(Nc2nccc(-c3c(-c4cccc(O)c4)nc4occn34)n2)CC1 [Example 321, 3-{5-[2-({1-[(4-chlorophenyl)sulfonyl]piperidin-4-yl}amino)pyrimidin-4-yl]imidazo[2,1-b][1,3]oxazol-6-yl}phenol]",6.90
9,"COC(=O)N1CCC(Nc2nccc(-c3c(-c4cccc(O)c4)nc4sccn34)n2)CC1 [Example 394, methyl 4-({4-[6-(3-hydroxyphenyl)imidazo[2,1-b][1,3]thiazol-5-yl]pyrimidin-2-yl}amino)piperidine-1-carboxylate]",< 5.52
10,"O=S(=O)(c1ccc(OC(F)(F)F)cc1)N1CCC(Nc2nccc(-c3c(-c4ccc(F)cc4)nc4occn34)n2)CC1 [Example 203, 4-[6-(4-fluorophenyl)imidazo[2,1-b][1,3]oxazol-5-yl]-N-(1-{[4-(trifluoromethoxy)phenyl]sulfonyl}piperidin-4-yl)pyrimidin-2-amine]",6.28
11,"Fc1ccc(-c2nc3sccn3c2-c2ccnc(N[C@@H]3CCNC3)n2)cc1 [Example 277, 4-[6-(4-fluorophenyl)imidazo[2,1-b][1,3]thiazol-5-yl]-N-[(3R)-pyrrolidin-3-yl]pyrimidin-2-amine]",7.36
12,"O=S(=O)(c1cccc(O)c1)N1CCC[C@@H](Nc2nccc(-c3c(-c4cccc(O)c4)nc4sccn34)n2)C1 [Example 143, 3-{[(3R)-3-({4-[6-(3-hydroxyphenyl)imidazo[2,1-b][1,3]thiazol-5-yl]pyrimidin-2-yl}amino)piperidin-1-yl]sulfonyl}phenol]",7.72

# — US7501430B2 (ArQule, Inc., priority 2006, dated 2009)
